Data from ChEMBL document CHEMBL3885861, “Open TG-GATES”.

Organism: Rattus norvegicus
Assay: Open TG-GATES - Regimen: Daily Repeat
Assay type: toxicity, organism-based, Sprague-Dawley
Set-up: regimen Daily Repeat, gender Male, age 6 weeks
Settings: in vivo, po, 30 mg/kg, route gavage, dose level Middle; for APTT / Bas / Eos / Fbg / Hb / Ht / Lym / MCH / MCHC / MCV / Mono / Neu / PT / Plat / RBC / Ret / WBC: tissue Blood
[1] = 72 h, tissue Kidney, time 3 day
[2] = 72 h, tissue Plasma, time 3 day

CCC1(c2ccccc2)C(=O)NC(=O)NC1=O [PHENOBARBITAL]
TERMINAL_BW (72 h, time 3 day): 222.1 g
APTT (72 h, time 3 day): 15.2 s
Bas (72 h, time 3 day): 0%
Eos (72 h, time 3 day): 0.6%
Fbg (72 h, time 3 day): 228.4 mg/dL
Hb (72 h, time 3 day): 13.5 g/dL
Ht (72 h, time 3 day): 40.1%
Lym (72 h, time 3 day): 81.2%
MCH (72 h, time 3 day): 21.8 pg
MCHC (72 h, time 3 day): 33.7%
MCV (72 h, time 3 day): 64.9 fL
Mono (72 h, time 3 day): 6.4%
Neu (72 h, time 3 day): 12%
PT (72 h, time 3 day): 11.2 s
Plat (72 h, time 3 day): 118.8 x10_4/uL
RBC (72 h, time 3 day): 618 x10_4/ul
Ret (72 h, time 3 day): 7.6%
WBC (72 h, time 3 day): 95.1 x10_2/uL
KIDNEY_L [1]: 0.9 g
KIDNEY_R [1]: 0.9 g
KIDNEY_TOTAL [1]: 1.9 g
LIVER (72 h, tissue Liver, time 3 day): 12.5 g
A/G [2]: 1.6
ALP [2]: 932 IU/L
ALT [2]: 36.6 IU/L
AST [2]: 63.2 IU/L
BUN [2]: 17.2 mg/dL
CRE [2]: 0.6 mg/dL
Ca [2]: 11.2 mg/dL
Cl [2]: 105.2 meq/L
DBIL [2]: 0.026 mg/dL
GLC [2]: 201 mg/dL
IP [2]: 9.2 mg/dL
K [2]: 4.5 meq/L
LDH [2]: 128.8 IU/L
Na [2]: 139.8 meq/L
PL [2]: 168.6 mg/dL
RALB [2]: 3.6 g/dL
TBIL [2]: 0.4 mg/dL
TC [2]: 92 mg/dL
TG [2]: 116.4 mg/dL
TP [2]: 5.9 g/dL
gamma-GTP [2]: 1.2 IU/L
TERMINAL_BW ([…], time 7 day): 261.6 g
TERMINAL_BW ([…], time 14 day): 299.2 g
TERMINAL_BW ([…], time 28 day): 388.6 g
APTT ([…], time 7 day): 15.6 s
Bas ([…], time 7 day): 0%
Eos ([…], time 7 day): 0.2%
Fbg ([…], time 7 day): 242.4 mg/dL
Hb ([…], time 7 day): 13.6 g/dL
Ht ([…], time 7 day): 40.8%
Lym ([…], time 7 day): 80.8%
MCH ([…], time 7 day): 21.6 pg
MCHC ([…], time 7 day): 33.3%
MCV ([…], time 7 day): 64.9 fL
Mono ([…], time 7 day): 6.6%
Neu ([…], time 7 day): 12%
PT ([…], time 7 day): 11.6 s
Plat ([…], time 7 day): 120.5 x10_4/uL
RBC ([…], time 7 day): 629.6 x10_4/ul
Ret ([…], time 7 day): 6.9%
WBC ([…], time 7 day): 121 x10_2/uL
APTT ([…], time 14 day): 17.6 s
Bas ([…], time 14 day): 0%
Eos ([…], time 14 day): 0%
Fbg ([…], time 14 day): 229 mg/dL
Hb ([…], time 14 day): 14.6 g/dL
Ht ([…], time 14 day): 44.3%
Lym ([…], time 14 day): 88%
MCH ([…], time 14 day): 20.3 pg
MCHC ([…], time 14 day): 33%
MCV ([…], time 14 day): 61.5 fL
Mono ([…], time 14 day): 3%
Neu ([…], time 14 day): 8.4%
PT ([…], time 14 day): 11.6 s
Plat ([…], time 14 day): 114.8 x10_4/uL
RBC ([…], time 14 day): 720.6 x10_4/ul
Ret ([…], time 14 day): 4.8%
WBC ([…], time 14 day): 130.2 x10_2/uL
APTT ([…], time 28 day): 18.2 s
Bas ([…], time 28 day): 0%
Eos ([…], time 28 day): 1%
Fbg ([…], time 28 day): 215 mg/dL
Hb ([…], time 28 day): 15.1 g/dL
Ht ([…], time 28 day): 45%
